Entries after “also recorded” stand apart in the source; their conditions may differ. Where two headings read alike, the source gives them in different places.
What was measured:
p53-R282W = biological target: T1, p53-R282W (Homo sapiens, UniProt P04637, R282W); assay type: cell-based; settings: p53-R282W on PUMA promoter, agents 24 hr (FIG. 37 and FIG. 41)
T1 construct: pcDNA3.1 expressing human full length p53 was gift from Prof; Xin Lu; expressed in transfected cells; host or cells: H1299 (p53-null)

NCI60 cell lines = assay type: cell-based, human; settings: Struc. / WT / Null / Others, G150 retrieved by CellMiner
wtp53 = assay: Real time qPCR of p53 targets, HCT116 cells; assay type: cell-based, human; settings: HCT116 expressing wtp53
Description: Total RNA was isolated from cells using Total RNA Purification Kit (B518651, Sangon Biotech). 1 μg total RNA was reverse-transcribed using the GoScript®™ Reverse Transciptase System (A5001, Promega) following manufacturer's protocol. PCR was performed in triplicate using SYBR green mix (Applied Biosystems), and a ViiA™ 7 Real-Time PCR System (Applied Biosystems) under the following conditions: 10 min at 95° C. followed by 40 cycles of 95° C. for 15 s and 60° C. for 1 min. Specificity of the PCR product was checked for each primer set and samples from the melting curve analysis. Expression levels of targeted genes were normalized relative to levels of β-actin adopting comparative Ct method.

p53-R172H = biological target: T2, p53-R172H (Mus musculus, UniProt P02340, R172H); assay type: cell-based
T2 construct: endogenous in cells; host or cells: mouse embryonic fibroblasts, Trp53-R172H/R172H
T2 sequence (P02340 whole entry R172H): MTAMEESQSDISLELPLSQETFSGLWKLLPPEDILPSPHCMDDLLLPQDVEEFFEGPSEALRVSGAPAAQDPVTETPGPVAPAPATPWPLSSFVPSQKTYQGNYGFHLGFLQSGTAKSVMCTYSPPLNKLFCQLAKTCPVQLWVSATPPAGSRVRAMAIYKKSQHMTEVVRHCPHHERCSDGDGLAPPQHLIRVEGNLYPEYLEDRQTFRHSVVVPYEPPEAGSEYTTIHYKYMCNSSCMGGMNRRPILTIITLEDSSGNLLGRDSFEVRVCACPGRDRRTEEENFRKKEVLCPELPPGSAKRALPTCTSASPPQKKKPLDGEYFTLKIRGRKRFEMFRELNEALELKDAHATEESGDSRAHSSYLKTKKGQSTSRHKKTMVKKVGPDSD

Molecule: COc1ccc(/C=C/c2nc(NCCCN(C)C)c3ccccc3n2)cc1 [CP31398]
- enhancement of p53 transcriptional activity in luciferase assay (p53-R282W): 1.5 times

Molecule: Cc1c2ccncc2c(C)c2c1[nH]c1ccccc12 [Ellipticine]
- enhancement of p53 transcriptional activity in luciferase assay (p53-R282W): 3.3 times

Molecule: C/C(=N\NC(=S)N1CCC1)c1ccccn1 [NSC319726]
- enhancement of p53 transcriptional activity in luciferase assay (p53-R282W): 1.5 times
- selectivity among NCI60 cell lines by p53 status (G150), in words (NCI60 cell lines): none of the reported compounds tested, including PRIMA-1 and NSC319726 survived the 4C screening; also recorded: No significant association

Molecule: COc1ccc(C2=N[C@@H](c3ccc(Cl)cc3)[C@@H](c3ccc(Cl)cc3)N2C(=O)N2CCNC(=O)C2)c(OC(C)C)c1 [Nutlin3]
- mRNA levels of p53 targets, in words (wtp53): significantly enhanced PUMA, PIG3, CDKN1A and MDM2 mRNA levels

Molecule: O=C1C2CCN(CC2)C1(CO)CO [PRIMA-1]
- enhancement of p53 transcriptional activity in luciferase assay (p53-R282W): negligible
- selectivity among NCI60 cell lines by p53 status (G150), in words (NCI60 cell lines): none of the reported compounds tested, including PRIMA-1 and NSC319726 survived the 4C screening
- selectivity among NCI60 cell lines by p53 status (G150), in words (NCI60 cell lines; listed as NSC281668): No significant association

Molecule: CCn1c2ccccc2c2cc(CNC)ccc21 [PhiKan083]
- enhancement of p53 transcriptional activity in luciferase assay (p53-R282W): negligible

Molecule: OCc1ccc(-c2ccc(-c3ccc(CO)s3)o2)s1 [RITA]
- enhancement of p53 transcriptional activity in luciferase assay (p53-R282W): negligible

Molecule: C=Cc1nc2ccccc2c(=O)[nH]1 [STIMA-1]
- enhancement of p53 transcriptional activity in luciferase assay (p53-R282W): negligible

Molecule: MIRA-1
- enhancement of p53 transcriptional activity in luciferase assay (p53-R282W): negligible

Molecule: potassium arsenite [NSC3060]
- PAb246 epitope (folded mouse p53-R172H), in words (p53-R172H): measurable increase of PAb1620 epitopes and PAb246 (for mouse p53-R172H) epitopes
